Here are results for one compound from paper PMC11429051, “The Effect of Maturity Stage on Polyphenolic Composition, Antioxidant and Anti-Tyrosinase Activities of Ficus rubiginosa Desf. ex Vent. Extracts” (Antioxidants, 2024).

The target of the experiment is T1, mushroom tyrosinase.
T1 construct: gene PPO3
The experiment can be described thus: L-DOPA oxidation, absorbance at […] nm after […] min. The experiment is classed as biochemical. Conditions: 0.1 M L-DOPA solution (300 µL in 610 µL assay), 0.05 M phosphate pH 6.8, room temperature, 10 min preincubation.

Values after ≈ are worked out from the molar mass of the structure shown.

By IC50 is commonly meant the midpoint of a concentration-inhibition curve. `C[C@@H]1O[C@@H](OC[C@H]2O[C@@H](Oc3c(-c4ccc(O)c(O)c4)oc4cc(O)cc(O)c4c3=O)[C@H](O)[C@@H](O)[C@@H]2O)[C@H](O)[C@H](O)[C@H]1O` [rutin] had a half-inhibitory concentration (IC50) of 5.38 µg/mL (≈ 8.81 µM).
